Values after ≈ are worked out from the molar mass of the structure shown. Where a SMILES comes first, the peptide text is derived from it. Bridges are numbered along the chain shown (N, C = ends). Roman numbers before positions name the chains, in order.
How the values were obtained:
[1] = system: Enterococcus faecalis; assay: Antibacterial activity against Enterococcus faecalis 51299 incubated for 12 hrs by microdilution method; type: functional
[2] = system: Klebsiella pneumoniae; assay: Antibacterial activity against colistin-resistant Klebsiella pneumoniae incubated for 12 hrs by microdilution method; type: functional
[3] = system: Escherichia coli; assay: Antibacterial activity against Escherichia coli TG1 incubated for 12 hrs by microdilution method; type: functional
[4] = system: Staphylococcus aureus; assay: Antibacterial activity against Staphylococcus aureus USA300 incubated for 12 hrs by microdilution method; type: functional
[5] = system: Pseudomonas aeruginosa; assay: Antibacterial activity against Pseudomonas aeruginosa ATCC 27853 incubated for 12 hrs by microdilution method; type: functional
[6] = system: Erythrocyte; assay: Hemolytic activity in human RBC assessed as hemolysis at […] incubated for 2 hrs by absorbance based plate reader analysis; type: toxicity, cell-based
[7] = system: Escherichia coli; assay: Antibacterial activity against Escherichia coli clinical isolate LC711/14 incubated for 12 hrs by microdilution method; type: functional
[8] = system: Klebsiella pneumoniae; assay: Antibacterial activity against Klebsiella pneumoniae ATCC43816 incubated for 12 hrs by microdilution method; type: functional
[9] = Stability of compound in human serum at 180 uM measured after 4 hrs by HPLC-MS analysis; type: ADME, cell-free
[10] = Stability of compound in human serum at 180 uM measured after 24 hrs by HPLC-MS analysis; type: ADME, cell-free
[11] = system: Erythrocyte; assay: Hemolytic activity in human RBC assessed as hemolysis at ~15 uM incubated for 2 hrs by absorbance based plate reader analysis; type: toxicity, cell-based

Molecule: I: H-KLLKRIKTLLKK-NH2 / II: H-KLLKRIKTLLK / III: H-KLLKRIKTLL / IV: H-KLLKRIKTLL (amide I:11-IV:C, I:12-II:C, II:11-III:C)
- MIC [1]: 25 µM
- MIC [2]: 12.5 µM
- MIC [3]: 6 µM
- MIC [4]: 3 µM
- MIC [5]: 6 µM
- Activity [6]: Toxic
- MIC [7]: 6 µM
- MIC [8]: 6 µM

Molecule: I: H-GIIDIAKKLFESWKK-NH2 / II: H-GIIDIAKKLFESWK / III: H-GIIDIAKKLFESW / IV: H-GIIDIAKKLFESW (amide I:14-IV:C, I:15-II:C, II:14-III:C)
- MIC [3]: 12.5 µM

Molecule: I: H-LSAAHRLAIGRRKK-NH2 / II: H-LSAAHRLAIGRRK / III: H-LSAAHRLAIGRR / IV: H-LSAAHRLAIGRR (amide I:13-IV:C, I:14-II:C, II:13-III:C)
- MIC [3]: 12.5 µM

Molecule: I: H-KRLWHKVGPFKK-NH2 / II: H-KRLWHKVGPFK / III: H-KRLWHKVGPF / IV: H-KRLWHKVGPF (amide I:11-IV:C, I:12-II:C, II:11-III:C)
- MIC [3]: 12.5 µM

Molecule: I: H-INLKAIAALAKKLLKK-NH2 / II: H-INLKAIAALAKKLLK / III: H-INLKAIAALAKKLL / IV: H-INLKAIAALAKKLL (amide I:15-IV:C, I:16-II:C, II:15-III:C)
- MIC [3]: 12.5 µM

Molecule: H-TLLKKVLKAAAK-OH
- Stability [9]: Stable
- Stability [10]: Unstable

Molecule: I: H-KLLKFIKTLLKK-NH2 / II: H-KLLKFIKTLLK / III: H-KLLKFIKTLL / IV: H-KLLKFIKTLL (amide I:11-IV:C, I:12-II:C, II:11-III:C)
- MIC [3]: 12.5 µM

Molecule: I: H-ALLKRIKTLLKK-NH2 / II: H-ALLKRIKTLLK / III: H-ALLKRIKTLL / IV: H-ALLKRIKTLL (amide I:11-IV:C, I:12-II:C, II:11-III:C)
- MIC [3]: 25 µM

Molecule: H-KKLLGKNWKLM-OH
- Stability [9]: Unstable
- Stability [10]: Unstable

Molecule: I: H-LSAARSLAIGRRKK-NH2 / II: H-LSAARSLAIGRRK / III: H-LSAARSLAIGRR / IV: H-LSAARSLAIGRR (amide I:13-IV:C, I:14-II:C, II:13-III:C)
- MIC [3]: 12.5 µM

Molecule: CC[C@H](C)[C@H](N)C(=O)N[C@@H](CC(N)=O)C(=O)N[C@@H](CC(C)C)C(=O)N[C@@H](CCCCN)C(=O)N[C@@H](CCCCN)C(=O)N[C@@H](CC(C)C)C(=O)N[C@@H](C)C(=O)N[C@@H](CCCCN)C(=O)N[C@@H](CC(C)C)C(=O)NCCCC[C@H](NC(=O)[C@H](CC(C)C)NC(=O)[C@H](CCCCN)NC(=O)[C@H](C)NC(=O)[C@H](CC(C)C)NC(=O)[C@H](CCCCN)NC(=O)[C@H](CCCCN)NC(=O)[C@H](CC(C)C)NC(=O)[C@H](CC(N)=O)NC(=O)[C@@H](N)[C@@H](C)CC)C(=O)NCCCC[C@H](NC(=O)[C@H](CCCCNC(=O)[C@H](CC(C)C)NC(=O)[C@H](CCCCN)NC(=O)[C@H](C)NC(=O)[C@H](CC(C)C)NC(=O)[C@H](CCCCN)NC(=O)[C@H](CCCCN)NC(=O)[C@H](CC(C)C)NC(=O)[C@H](CC(N)=O)NC(=O)[C@@H](N)[C@@H](C)CC)NC(=O)[C@H](CC(C)C)NC(=O)[C@H](CCCCN)NC(=O)[C@H](C)NC(=O)[C@H](CC(C)C)NC(=O)[C@H](CCCCN)NC(=O)[C@H](CCCCN)NC(=O)[C@H](CC(C)C)NC(=O)[C@H](CC(N)=O)NC(=O)[C@@H](N)[C@@H](C)CC)C(N)=O
- MIC [1]: > 25 µM
- MIC [2]: 6 µM (≈ 26.9 µg/mL)
- MIC [3]: 0.7 µM (≈ 3.14 µg/mL)
- MIC [4]: > 25 µM
- MIC [5]: 3 µM (≈ 13.5 µg/mL)
- MIC [7]: 6 µM (≈ 26.9 µg/mL)
- MIC [8]: 12 µM (≈ 53.9 µg/mL)
- Activity [11]: Toxic

Molecule: H-LLKKVLKAAAK-OH
- Stability [9]: Unstable
- Stability [10]: Unstable

Molecule: I: H-LSAAHSLAIGRRKK-NH2 / II: H-LSAAHSLAIGRRK / III: H-LSAAHSLAIGRR / IV: H-LSAAHSLAIGRR (amide I:13-IV:C, I:14-II:C, II:13-III:C)
- MIC [3]: 25 µM

Molecule: H-GRFKRFRKKL-OH
- Stability [9]: Stable
- Stability [10]: Unstable

Molecule: CC(C)C[C@H](NC(=O)[C@@H](NC(=O)[C@@H](NC(=O)[C@@H](N)CO)[C@@H](C)O)C(C)C)C(=O)N[C@H](C(=O)N[C@@H](CO)C(=O)N[C@@H](CCCCN)C(=O)N[C@@H](Cc1ccc(O)cc1)C(=O)N[C@@H](CCCNC(=N)N)C(=O)NCCCC[C@H](NC(=O)[C@H](CCCNC(=N)N)NC(=O)[C@H](Cc1ccc(O)cc1)NC(=O)[C@H](CCCCN)NC(=O)[C@H](CO)NC(=O)[C@@H](NC(=O)[C@H](CC(C)C)NC(=O)[C@@H](NC(=O)[C@@H](NC(=O)[C@@H](N)CO)[C@@H](C)O)C(C)C)[C@@H](C)O)C(=O)NCCCC[C@H](NC(=O)[C@H](CCCCNC(=O)[C@H](CCCNC(=N)N)NC(=O)[C@H](Cc1ccc(O)cc1)NC(=O)[C@H](CCCCN)NC(=O)[C@H](CO)NC(=O)[C@@H](NC(=O)[C@H](CC(C)C)NC(=O)[C@@H](NC(=O)[C@@H](NC(=O)[C@@H](N)CO)[C@@H](C)O)C(C)C)[C@@H](C)O)NC(=O)[C@H](CCCNC(=N)N)NC(=O)[C@H](Cc1ccc(O)cc1)NC(=O)[C@H](CCCCN)NC(=O)[C@H](CO)NC(=O)[C@@H](NC(=O)[C@H](CC(C)C)NC(=O)[C@@H](NC(=O)[C@@H](NC(=O)[C@@H](N)CO)[C@@H](C)O)C(C)C)[C@@H](C)O)C(N)=O)[C@@H](C)O (HELM PEPTIDE1{S.T.V.L.T.S.K.Y.R.K.K.[am]}|PEPTIDE2{S.T.V.L.T.S.K.Y.R.K}|PEPTIDE3{S.T.V.L.T.S.K.Y.R}|PEPTIDE4{S.T.V.L.T.S.K.Y.R}$PEPTIDE1,PEPTIDE4,10:R3-9:R2|PEPTIDE1,PEPTIDE2,11:R3-10:R2|PEPTIDE2,PEPTIDE3,10:R3-9:R2$$$V2.0)
- MIC [3]: 25 µM (≈ 114 µg/mL)

Molecule: CC[C@H](C)[C@H](NC(=O)[C@H](CO)NC(=O)[C@H](CCCCN)NC(=O)[C@H](CC(C)C)NC(=O)[C@H](CCCCN)NC(=O)[C@@H](N)CC(C)C)C(=O)N[C@H](C(=O)N[C@@H](CO)C(=O)N[C@@H](Cc1c[nH]c2ccccc12)C(=O)NCCCC[C@@H]1NC(=O)[C@H](Cc2c[nH]c3ccccc23)NC(=O)[C@H](CO)NC(=O)[C@@H](NC(=O)[C@@H](NC(=O)[C@H](CO)NC(=O)[C@H](CCCCN)NC(=O)[C@H](CC(C)C)NC(=O)[C@H](CCCCN)NC(=O)[C@@H](N)CC(C)C)[C@@H](C)CC)C(C)NCCCC[C@H](NC(=O)[C@H](CC(C)C)NC(=O)[C@H](CCCCN)NC(=O)[C@@H](N)CC(C)C)C(=O)N[C@@H](CO)C(=O)N[C@@H]([C@@H](C)CC)C(=O)N[C@@H](C(C)C)C(=O)N[C@@H](CO)C(=O)N[C@@H](Cc2c[nH]c3ccccc23)C(=O)NCCCC[C@H](NC(=O)[C@H](Cc2c[nH]c3ccccc23)NC(=O)[C@H](CO)NC(=O)[C@@H](NC(=O)[C@@H](NC(=O)[C@H](CO)NC(=O)[C@H](CCCCN)NC(=O)[C@H](CC(C)C)NC(=O)[C@H](CCCCN)NC(=O)[C@@H](N)CC(C)C)[C@@H](C)CC)C(C)C)C(=O)N[C@H](C(N)=O)CCCCNC1=O)C(C)C (some centres undefined)
- MIC [3]: 12.5 µM (≈ 57.6 µg/mL)

From ChEMBL document CHEMBL5614437, “Antibacterial and Anti-Inflammatory Activity of Branched Peptides Derived from Natural Host Defense Sequences” (J Med Chem, 2024)
